Tested on: 49-day-old S. mansoni adult worms
Assay: In vitro experiments with adult worms of S. mansoni (mortality, motor activity)
Format: cell-based, Schistosoma mansoni
Conditions: 2 µM, male worms
Procedure: The Belo Horizonte (BH) strain of S. mansoni was maintained in Biomphalaria glabrata snails and Mesocricetus auratus hamsters at the Adolfo Lutz Institute (São Paulo, Brazil) according to standard procedures. Detailed methods for the infection of molluscs and hamsters, as well as for the recovery of parasites, were as described previously. Briefly, the intermediate host snails were exposed to light for approximately 3 h and cercariae of S. mansoni were subsequently harvested. […] All animals were handled in strict accordance with good animal practice as defined by the Animal Use Ethics Committee. The preparations and culture of schistosomes was performed as previously described. Briefly, hamsters were killed 49 days after infection for the recovery of adult schistosomes. Next, fresh adult worm pairs (male and female) were washed and placed in a 24-well culture plate (TPP, St. […] Adult schistosomes were maintained continuously in medium (with or without drugs) for 96 h as described below. In vitro assays in S. mansoni adults were performed with mated males and females. The worm pairs obtained from the infusion hamsters were washed twice with RPMI 1640 medium containing 200 U/mL penicillin, 200 μg/mL streptomycin and 2 μg/mL amphotericin B (Vitrocell, Campinas, Brazil). The mated parasites were then transferred into 24-well cell culture plates (TPP, St. […] Cultures of adult worms were monitored by microscopy or magnifying glass. The effect of the drug was assessed with emphasis on changes in worm motor activity and death of worms as previously described.

`O=C(C1CCCCC1)N1CC(=O)N2CCc3ccccc3C2C1` (stereo not drawn) [Praziquantel, praziquantel, reference compound] was tested, and the “Dead Worms (%) M” value (24 h) was 100%, the “Motor Activity Reduction (%) Significant M” value (24 h) was 100% and the “Motor Activity Reduction (%) Slight M” value (24 h) was 0%. The “Dead Worms (%) M” value (48 h) was 100%, the “Motor Activity Reduction (%) Significant M” value (48 h) was 100% and the “Motor Activity Reduction (%) Slight M” value (48 h) was 0%. The “Dead Worms (%) M” value (72 h) was 100%, the “Motor Activity Reduction (%) Significant M” value (72 h) was 100% and the “Motor Activity Reduction (%) Slight M” value (72 h) was 0%. The “Dead Worms (%) M” value (96 h) was 100%, the “Motor Activity Reduction (%) Significant M” value (96 h) was 100% and the “Motor Activity Reduction (%) Slight M” value (96 h) was 0%.

Source: publication PMC6032158, “Structure–Activity Relationship of Piplartine and Synthetic Analogues against Schistosoma mansoni and Cytotoxicity to Mammalian Cells” (International Journal of Molecular Sciences, 2018)
